In PMC11078216, “Discovery of potent and selective activity-based probes (ABPs) for the deubiquitinating enzyme USP30” (RSC Chemical Biology, 2024):
Blank lines part the entries; values can stand above or below the compound they belong to.

How the values were obtained:
Experiment in all cases: ABPP chemical proteomics (LC-MS/MS) in HEK293T cells
Format in all cases: cell-based
[1] = molecular target: T1, MDC1 (Homo sapiens, UniProt Q14676); details: IMP-2586 labelling vs DMSO, 30 nM, 10 min, HEK293T (Table S4, Fig.5c)
T1 construct: endogenous in cells; host or cells: HEK293T
Procedure, shortened: (§1)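 Cellular target engagement was assessed by probe competition. Labelled HEK293T lysates (≥400 µg protein) underwent copper-catalysed click ligation for 1 h at room temperature. Biotinylated proteins were pulled down on NeutrAvidin agarose in 0.2% SDS/HEPES pH 8.0 for 3 h before LC-MS/MS quantification.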

[2] = molecular target: T2, ALYREF (Homo sapiens, UniProt Q86V81); details: IMP-2586 labelling vs DMSO, 30 nM, 10 min, HEK293T (Table S4, Fig.5c)
T2 construct: endogenous in cells; host or cells: HEK293T
Procedure, shortened: as §1

[3] = molecular target: T3, SFT2D3 (Homo sapiens, UniProt Q587I9); details: IMP-2586 labelling vs DMSO, 30 nM, 10 min, HEK293T (Table S4, Fig.5c)
T3 construct: endogenous in cells; host or cells: HEK293T
Procedure, shortened: as §1

[4] = molecular target: T4, MALT1 (Homo sapiens, UniProt Q9UDY8); details: IMP-2586 labelling vs DMSO, 30 nM, 10 min, HEK293T (Table S4, Fig.5c)
T4 construct: endogenous in cells; host or cells: HEK293T
Procedure, shortened: as §1

[5] = molecular target: T5, TMEM263 (Homo sapiens, UniProt Q8WUH6); details: IMP-2586 labelling vs DMSO, 30 nM, 10 min, HEK293T (Table S4, Fig.5c)
T5 construct: endogenous in cells; host or cells: HEK293T
Procedure, shortened: as §1

[6] = molecular target: T6, RPL23A (Homo sapiens, UniProt P62750); details: IMP-2586 labelling vs DMSO, 30 nM, 10 min, HEK293T (Table S4, Fig.5c)
T6 construct: endogenous in cells; host or cells: HEK293T
Procedure, shortened: as §1

[7] = molecular target: T7, CFAP20 (Homo sapiens, UniProt Q9Y6A4); details: IMP-2586 labelling vs DMSO, 30 nM, 10 min, HEK293T (Table S4, Fig.5c)
T7 construct: endogenous in cells; host or cells: HEK293T
Procedure, shortened: as §1

[8] = molecular target: T8, GET4 (Homo sapiens, UniProt Q7L5D6); details: IMP-2587 labelling vs DMSO, 30 nM, 10 min, HEK293T (Table S2, Fig.5a)
T8 construct: endogenous in cells; host or cells: HEK293T
Procedure, shortened: as §1

[9] = molecular target: T9, NIT2 (Homo sapiens, UniProt Q9NQR4); details: IMP-2587 labelling vs DMSO, 30 nM, 10 min, HEK293T (Table S2, Fig.5a)
T9 construct: endogenous in cells; host or cells: HEK293T
Procedure, shortened: as §1

[10] = molecular target: T10, RPS8 (Homo sapiens, UniProt P62241); details: IMP-2587 labelling vs DMSO, 30 nM, 10 min, HEK293T (Table S2, Fig.5a)
T10 construct: endogenous in cells; host or cells: HEK293T
Procedure, shortened: as §1

[11] = molecular target: T11, RPL10 (Homo sapiens, UniProt P27635); details: compound 1 out-competition with IMP-2587 labelling, HEK293T (Table S3, Fig.5b)
T11 construct: endogenous in cells; host or cells: HEK293T
Procedure, shortened: as §1

[12] = molecular target: T12, ACTG1 (Homo sapiens, UniProt P63261); details: compound 1 out-competition with IMP-2587 labelling, HEK293T (Table S3, Fig.5b)
T12 construct: endogenous in cells; host or cells: HEK293T
Procedure, shortened: as §1

[13] = molecular target: T13, IMPDH2 (Homo sapiens, UniProt P12268); details: compound 1 out-competition with IMP-2587 labelling, HEK293T (Table S3, Fig.5b)
T13 construct: endogenous in cells; host or cells: HEK293T
Procedure, shortened: as §1

[14] = molecular target: T14, NUB1 (Homo sapiens, UniProt Q9Y5A7); details: compound 3 out-competition with IMP-2586 labelling, HEK293T (Table S5, Fig.5d)
T14 construct: endogenous in cells; host or cells: HEK293T
Procedure, shortened: as §1

[15] = molecular target: T15, LUC7L3 (Homo sapiens, UniProt O95232); details: compound 3 out-competition with IMP-2586 labelling, HEK293T (Table S5, Fig.5d)
T15 construct: endogenous in cells; host or cells: HEK293T
Procedure, shortened: as §1

T7 sequence (Q9Y6A4 whole entry): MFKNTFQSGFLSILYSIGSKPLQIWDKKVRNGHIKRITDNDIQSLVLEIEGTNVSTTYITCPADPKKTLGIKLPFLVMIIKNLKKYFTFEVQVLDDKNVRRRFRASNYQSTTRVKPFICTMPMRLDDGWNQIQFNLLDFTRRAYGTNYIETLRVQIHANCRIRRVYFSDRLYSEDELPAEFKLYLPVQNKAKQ
T8 sequence (Q7L5D6 whole entry): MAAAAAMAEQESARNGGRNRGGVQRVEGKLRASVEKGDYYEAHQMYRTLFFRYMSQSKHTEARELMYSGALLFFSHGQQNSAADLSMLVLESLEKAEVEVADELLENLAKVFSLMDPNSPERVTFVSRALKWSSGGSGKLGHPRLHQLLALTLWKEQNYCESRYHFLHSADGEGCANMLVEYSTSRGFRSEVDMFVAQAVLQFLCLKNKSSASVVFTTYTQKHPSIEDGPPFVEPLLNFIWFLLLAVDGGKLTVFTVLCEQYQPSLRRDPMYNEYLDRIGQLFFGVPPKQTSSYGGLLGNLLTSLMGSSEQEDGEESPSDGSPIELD
T9 sequence (Q9NQR4 whole entry): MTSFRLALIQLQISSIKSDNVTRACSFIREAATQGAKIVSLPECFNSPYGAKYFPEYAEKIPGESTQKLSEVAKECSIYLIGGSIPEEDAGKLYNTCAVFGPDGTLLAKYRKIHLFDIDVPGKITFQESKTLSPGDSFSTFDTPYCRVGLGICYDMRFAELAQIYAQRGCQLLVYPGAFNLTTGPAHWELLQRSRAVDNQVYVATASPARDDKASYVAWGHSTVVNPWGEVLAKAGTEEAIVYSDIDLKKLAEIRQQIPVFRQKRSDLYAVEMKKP
T3 sequence (Q587I9 whole entry): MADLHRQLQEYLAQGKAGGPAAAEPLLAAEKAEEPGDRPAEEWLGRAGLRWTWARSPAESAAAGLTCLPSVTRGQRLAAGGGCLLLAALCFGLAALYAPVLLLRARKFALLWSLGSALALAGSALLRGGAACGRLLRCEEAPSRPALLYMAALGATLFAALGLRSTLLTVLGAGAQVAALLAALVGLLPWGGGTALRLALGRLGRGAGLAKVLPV
T14 sequence (Q9Y5A7 whole entry): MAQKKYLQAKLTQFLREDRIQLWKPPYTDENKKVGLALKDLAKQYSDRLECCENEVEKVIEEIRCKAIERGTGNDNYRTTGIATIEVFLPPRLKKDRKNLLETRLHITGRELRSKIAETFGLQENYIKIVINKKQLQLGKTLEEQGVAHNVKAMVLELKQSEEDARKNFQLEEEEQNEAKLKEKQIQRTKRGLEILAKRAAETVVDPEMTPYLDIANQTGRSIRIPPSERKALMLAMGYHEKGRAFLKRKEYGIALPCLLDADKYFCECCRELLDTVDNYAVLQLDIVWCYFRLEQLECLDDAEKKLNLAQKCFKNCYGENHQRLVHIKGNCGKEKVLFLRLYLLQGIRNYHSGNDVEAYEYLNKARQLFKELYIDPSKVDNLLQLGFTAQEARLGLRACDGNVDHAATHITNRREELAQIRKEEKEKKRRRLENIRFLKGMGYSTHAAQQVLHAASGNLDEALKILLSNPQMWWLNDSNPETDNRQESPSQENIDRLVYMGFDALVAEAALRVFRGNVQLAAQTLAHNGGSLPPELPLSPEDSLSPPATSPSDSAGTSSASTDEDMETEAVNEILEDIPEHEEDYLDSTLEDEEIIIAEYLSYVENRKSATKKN
T1 sequence (Q14676 whole entry): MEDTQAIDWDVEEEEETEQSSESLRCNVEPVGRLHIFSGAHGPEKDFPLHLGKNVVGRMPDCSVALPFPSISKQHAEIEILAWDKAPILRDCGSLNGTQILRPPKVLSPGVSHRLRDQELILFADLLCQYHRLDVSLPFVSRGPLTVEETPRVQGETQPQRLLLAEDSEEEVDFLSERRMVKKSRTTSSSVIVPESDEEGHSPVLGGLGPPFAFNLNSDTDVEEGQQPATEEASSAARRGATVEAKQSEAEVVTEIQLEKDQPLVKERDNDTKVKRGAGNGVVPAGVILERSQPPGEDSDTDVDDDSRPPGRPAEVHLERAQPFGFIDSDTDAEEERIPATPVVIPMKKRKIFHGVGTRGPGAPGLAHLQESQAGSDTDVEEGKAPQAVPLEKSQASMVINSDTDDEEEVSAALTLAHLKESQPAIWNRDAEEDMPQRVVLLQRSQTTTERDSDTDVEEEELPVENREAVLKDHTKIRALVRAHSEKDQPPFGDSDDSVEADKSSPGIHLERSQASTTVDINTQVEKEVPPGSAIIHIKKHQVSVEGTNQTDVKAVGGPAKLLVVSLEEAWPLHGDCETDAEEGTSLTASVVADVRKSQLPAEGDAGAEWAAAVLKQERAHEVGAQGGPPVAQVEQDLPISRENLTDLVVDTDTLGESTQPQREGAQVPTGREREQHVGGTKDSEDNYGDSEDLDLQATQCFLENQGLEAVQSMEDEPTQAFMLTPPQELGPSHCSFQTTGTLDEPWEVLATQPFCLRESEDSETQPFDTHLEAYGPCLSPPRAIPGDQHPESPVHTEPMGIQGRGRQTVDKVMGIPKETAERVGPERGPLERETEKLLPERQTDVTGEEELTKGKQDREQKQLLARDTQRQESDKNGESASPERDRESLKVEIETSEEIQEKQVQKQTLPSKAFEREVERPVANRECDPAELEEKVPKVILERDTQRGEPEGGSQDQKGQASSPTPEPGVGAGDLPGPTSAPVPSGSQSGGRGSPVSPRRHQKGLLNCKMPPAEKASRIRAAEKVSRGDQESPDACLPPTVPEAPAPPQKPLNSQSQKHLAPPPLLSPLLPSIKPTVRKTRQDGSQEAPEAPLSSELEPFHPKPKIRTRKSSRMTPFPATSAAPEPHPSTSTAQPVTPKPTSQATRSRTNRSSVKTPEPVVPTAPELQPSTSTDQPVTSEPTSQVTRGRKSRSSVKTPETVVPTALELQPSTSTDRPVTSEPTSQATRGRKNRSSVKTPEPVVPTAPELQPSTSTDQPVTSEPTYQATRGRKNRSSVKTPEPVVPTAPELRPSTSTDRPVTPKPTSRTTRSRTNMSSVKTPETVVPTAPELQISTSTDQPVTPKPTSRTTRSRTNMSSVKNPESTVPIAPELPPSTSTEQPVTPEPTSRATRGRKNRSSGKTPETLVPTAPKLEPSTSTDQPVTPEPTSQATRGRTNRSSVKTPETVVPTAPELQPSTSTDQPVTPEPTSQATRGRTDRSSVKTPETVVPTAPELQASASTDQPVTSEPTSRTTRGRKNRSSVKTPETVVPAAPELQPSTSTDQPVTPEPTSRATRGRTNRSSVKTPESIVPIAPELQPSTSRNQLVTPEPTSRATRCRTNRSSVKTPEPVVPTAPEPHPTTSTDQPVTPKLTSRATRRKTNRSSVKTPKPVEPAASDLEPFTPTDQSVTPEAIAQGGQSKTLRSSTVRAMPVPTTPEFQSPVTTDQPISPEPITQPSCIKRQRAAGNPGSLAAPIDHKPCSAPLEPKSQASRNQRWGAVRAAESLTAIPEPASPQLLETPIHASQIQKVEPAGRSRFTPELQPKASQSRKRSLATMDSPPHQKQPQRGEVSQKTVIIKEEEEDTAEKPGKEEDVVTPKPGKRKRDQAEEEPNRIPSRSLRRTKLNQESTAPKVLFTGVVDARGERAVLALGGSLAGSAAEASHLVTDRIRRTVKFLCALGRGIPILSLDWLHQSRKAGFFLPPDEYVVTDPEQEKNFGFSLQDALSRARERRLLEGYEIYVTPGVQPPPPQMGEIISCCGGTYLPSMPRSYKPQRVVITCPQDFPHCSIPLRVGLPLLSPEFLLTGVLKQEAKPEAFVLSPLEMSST
T15 sequence (O95232 whole entry): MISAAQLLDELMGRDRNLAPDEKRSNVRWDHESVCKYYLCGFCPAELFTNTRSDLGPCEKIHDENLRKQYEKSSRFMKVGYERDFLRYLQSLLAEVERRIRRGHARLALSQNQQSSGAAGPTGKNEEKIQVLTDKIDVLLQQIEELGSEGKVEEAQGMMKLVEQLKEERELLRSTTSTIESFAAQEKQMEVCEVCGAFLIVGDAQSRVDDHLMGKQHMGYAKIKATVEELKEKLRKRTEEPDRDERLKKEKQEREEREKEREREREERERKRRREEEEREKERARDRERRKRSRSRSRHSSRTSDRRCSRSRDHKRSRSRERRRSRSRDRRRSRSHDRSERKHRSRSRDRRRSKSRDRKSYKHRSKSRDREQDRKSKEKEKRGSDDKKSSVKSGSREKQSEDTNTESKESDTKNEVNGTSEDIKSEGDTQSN
T4 sequence (Q9UDY8 whole entry): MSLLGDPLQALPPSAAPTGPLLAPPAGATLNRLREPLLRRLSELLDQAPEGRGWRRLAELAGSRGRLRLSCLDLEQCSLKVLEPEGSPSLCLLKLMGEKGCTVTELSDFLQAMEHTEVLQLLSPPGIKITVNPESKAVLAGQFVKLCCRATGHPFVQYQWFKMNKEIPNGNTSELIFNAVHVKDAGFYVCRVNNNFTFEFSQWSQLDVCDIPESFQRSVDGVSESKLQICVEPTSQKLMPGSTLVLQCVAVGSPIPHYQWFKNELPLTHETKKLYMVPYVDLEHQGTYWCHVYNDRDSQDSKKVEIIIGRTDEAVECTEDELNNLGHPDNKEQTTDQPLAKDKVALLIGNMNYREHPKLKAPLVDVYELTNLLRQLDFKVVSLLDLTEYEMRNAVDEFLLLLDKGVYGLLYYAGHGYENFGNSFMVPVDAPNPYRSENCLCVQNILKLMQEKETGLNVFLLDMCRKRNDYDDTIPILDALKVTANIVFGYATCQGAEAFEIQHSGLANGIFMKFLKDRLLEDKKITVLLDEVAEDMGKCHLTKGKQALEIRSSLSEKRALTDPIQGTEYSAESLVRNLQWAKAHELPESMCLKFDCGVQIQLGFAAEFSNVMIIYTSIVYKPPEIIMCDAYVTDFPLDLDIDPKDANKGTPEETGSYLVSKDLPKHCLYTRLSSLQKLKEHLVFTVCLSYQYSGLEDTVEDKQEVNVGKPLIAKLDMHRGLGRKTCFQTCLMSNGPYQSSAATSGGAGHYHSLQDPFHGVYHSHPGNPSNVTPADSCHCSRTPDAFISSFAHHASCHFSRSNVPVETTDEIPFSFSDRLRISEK

SMILES: N#CN1CC[C@@H](NC(=O)c2cc(-c3ccccc3Oc3ccc(N=[N+]=[N-])cc3)n[nH]2)C1 [IMP-2586]
Difference (log2 fold change of enrichment) [1]: 0.38
Difference (log2 fold change of enrichment) [2]: -0.42
Difference (log2 fold change of enrichment) [3]: -1.51
Difference (log2 fold change of enrichment) [4]: 0.75
Difference (log2 fold change of enrichment) [5]: -0.44
Difference (log2 fold change of enrichment) [6]: -0.57
Difference (log2 fold change of enrichment) [7]: -0.41

SMILES: C#Cc1cccc(-c2cc(NC(=O)CC3CCN(C#N)C3)on2)c1 (stereo not drawn) [IMP-2587]
Difference (log2 fold change of enrichment) [8]: 0.76
Difference (log2 fold change of enrichment) [9]: 0.61
Difference (log2 fold change of enrichment) [10]: -0.44

Difference (log2 fold change of enrichment) [11]: -0.52
Difference (log2 fold change of enrichment) [12]: -0.57
Difference (log2 fold change of enrichment) [13]: -0.70
SMILES: N#CN1CC[C@H](CC(=O)Nc2cc(-c3cccc(Cl)c3)no2)C1 [compound 1, reference compound]

Difference (log2 fold change of enrichment) [14]: -0.38
Difference (log2 fold change of enrichment) [15]: -0.51
SMILES: N#CN1CC[C@@H](NC(=O)c2cc(-c3ccccc3Oc3ccccc3)n[nH]2)C1 [compound 3, reference compound]
